A short description of the data set: Aerosol performance by laser diffraction (Spraytec with inhalation cell, Monodose inhaler). The conditions noted are these: mean. It counts as physicochemical. The procedure:
The aerosol performance of the microparticles of the present invention were evaluated by laser diffraction (Spraytec, Malvern Instruments, Worcestershire, UK) equipped with an inhalation cell attachment. Approximate 30 mg (or 15 mg in later tests) of each powder was loaded into size 3 HPMC capsules (Capsugel, Peapack, N.J., USA). Before the aerosolization, a stainless steel pin punched each end of the capsule allowing powders to be released from the capsule by providing two holes with diameter about 1 mm. Each capsule was aerosolized using a Monodose inhaler device (Miat S.p.A., Milan, Italy) at flow rate of 60 and 90 L/min. All measurements were made on four replicates at room temperature (20° C., 50% RH). Each measurement was performed over 4 s.
The device retention was calculated as a percentage of powder left both in the capsules and in the inhalers to the total load. The fine particle fraction (FPF) was defined as the amount of drug particle smaller than 5.4 μm as a percentage of the powder emitted from inhaler device.
It should be noted that all powders were tested after removing large agglomerates by gently passing the powders through a 250 μm sieve.
To further improve both the emitted dose and FPF of the mechano-fused microparticles with lower contents of MgSt, e.g. between 0.5% and 1%, loose agglomeration was applied by vibrating powders between two sieves of 180 and 710 μm.
Prior to this sieving process, powders were tumbled to encourage formation of loose agglomerates.

Where [1] appears, read: 90 L/min, loosely agglomerated drug powders (tumbled, vibrated between sieves of 180 and 710 μm) versus unsieved.

Turning to `NC[C@H]1O[C@H](O[C@H]2[C@H](O)[C@@H](O[C@H]3O[C@H](CO)[C@@H](O)[C@H](N)[C@H]3O)[C@H](N)C[C@@H]2N)[C@H](N)C[C@@H]1O` [TMC-raw, (2S,3R,4S,5S,6R)-4-amino-2-{[(1S,2S,3R,4S,6R)-4,6-diamino-3-{[(2R,3R,5S,6R)-3-amino-6-(aminomethyl)-5-hydroxyoxan-2-yl]oxy}-2-hydroxycyclohexyl]oxy}-6-(hydroxymethyl)oxane-3,5-diol], the “<5.4 μm (%) (fine particle fraction, FPF)” value (90 L/min air flow, Monodose inhaler, percentage of the powder emitted, powders passed through 250 μm sieve) turned out to be 32.58%; the “<5.4 μm (%) (fine particle fraction, FPF)” value (90 L/min air flow, Monodose inhaler, percentage of the powder emitted, powders passed through 250 μm sieve, listed as untreated drug powder) is “around 30%”; the “<5.4 μm (%) (fine particle fraction, FPF)” value under setting [1] turned out to be 32.58%. The “Emitted dose (%)” value by setting is: (90 L/min air flow, Monodose inhaler, size 3 HPMC capsules, powders passed through 250 μm sieve) 70.77%; under setting [1], 70.77%.

These data come from US20110139152A1, “ANTIBIOTIC MICROPARTICLES FOR INHALATION” (Chiesi Farmaceutici S.p.A., priority 2009, published 2011).
